From patent publication US10653642B2, “Compositions and methods for the treatment of tauopathies” (UNIVERSITY OF SOUTH FLORIDA, priority 2017, dated 2020)

Assays:
Format in all cases: cell-based
endogenous tau = assay: Western blot of tau levels in M17 neuroblastoma cells
Procedure: (§1) It was examined whether hexachlorophene can regulate levels of tau in cellular models. Three different cells lines were treated with hexachlorophene at various different doses. M17 neuroblastoma cells were treated with 1 μM, 2 μM, 3 μM, 5 μM, and 10 μM hexachlorophene. HeLa C3 cells were treated with 0.5 μM, 1 μM, 2 μM, 3 μM, and 5 μM hexachlorophene. iHEK280 cells (an inducible tau model) were treated with 0.5 μM, 1 μM, 1.5 μM, 2 μM, and 2.5 μM hexachlorophene. Cell lysates were analyzed by Western blotting for total tau, phosphorylated tau, and actin (as a control). We also analyzed the effect of hexachlorophene on various pathological forms of tau such as the phosphoserine 396 tau form that localizes to the soluble fraction. Hexachlorophene was purchased from Sigma-Aldrich (St. Louis, Mo.). BE(2) M17 neuroblastoma cells were purchased from ATCC (Manassas, Va.). HeLa C3 cells were generated according to Jinwal et al. (J. Neurosci. 2009, 29, 12079-12088). iHEK cells were generated according to Abisambra et al. (J. Neurosci. 2013, 33, 9498-9507). Neuro-2a (N2a) mouse neuroblastoma cells overexpressing human tau-GFP were generated in house.

over-expressed tau = target: T1, over-expressed tau (Homo sapiens, UniProt P10636); assay: Western blot of tau levels in HeLa C3 cells with over-expressed tau; settings: for phosphorylated tau levels / total tau levels: 0.5-5 μM
T1 construct: expressed in transfected cells; host or cells: HeLa C3 cells
Procedure: as §1

inducible tau = assay: Western blot of tau levels in iHEK280 cells (inducible tau model); settings: for levels of phosphorylated tau / levels of total tau: 0.5-2.5 μM
Procedure: as §1

tau aggregates = assay: Thioflavin-S staining of tau aggregates in HEK280 cells
Procedure: We examined the effect of hexachlorophene on tau aggregation using thioflavin-S staining. Thioflavin S is a mixture of compounds that results from the methylation of dehydrothiotoluidine with sulfonic acid, and it is used to stain tau aggregates. Upon binding tau aggregates, thioflavin S gives a distinct increase in fluorescence emission. Thioflavin-S staining was performed by incubating HEK280 cells with 0.1% thioflavin-S for 5 min, with or without 1 μM hexachlorophene. Cells were also labelled with a primary rabbit polyclonal Tau Antibody diluted with 5% goat serum and a secondary anti-rabbit antibody labeled with red. Cells containing distinct thioflavin-S signals indicating the presence of aggregated protein were scored in many independent fields containing a total of 500 cells.

human tau-GFP [1] = assay: Western blot of tau in Neuro-2a (N2a) mouse neuroblastoma cells overexpressing human tau-GFP; settings: nanomolar concentrations, 24 hours
Procedure: as §1
Neuro-2a (N2a) mouse neuroblastoma cells overexpressing human tau-GFP were examined for the effect of hexachlorophene on tau protein using Western blot analysis. […]

human tau-GFP [2] = assay: Immunofluorescence and confocal microscopy of Neuro-2a cells overexpressing human tau-GFP; settings: N2a cells, immunofluorescence, 0.1-3 μM, 24 hours
Excerpt: Neuro-2a (N2a) mouse neuroblastoma cells overexpressing human tau-GFP were examined for the effect of hexachlorophene on tau protein using Western blot analysis. […] Immunofluorescence and confocal microscopy were also used to analyze the effect of hexachlorophene on the cells.

[3] = 24 hours, listed as Hexachlorophene

T1 sequence (P10636 1-383 isoform P10636-6): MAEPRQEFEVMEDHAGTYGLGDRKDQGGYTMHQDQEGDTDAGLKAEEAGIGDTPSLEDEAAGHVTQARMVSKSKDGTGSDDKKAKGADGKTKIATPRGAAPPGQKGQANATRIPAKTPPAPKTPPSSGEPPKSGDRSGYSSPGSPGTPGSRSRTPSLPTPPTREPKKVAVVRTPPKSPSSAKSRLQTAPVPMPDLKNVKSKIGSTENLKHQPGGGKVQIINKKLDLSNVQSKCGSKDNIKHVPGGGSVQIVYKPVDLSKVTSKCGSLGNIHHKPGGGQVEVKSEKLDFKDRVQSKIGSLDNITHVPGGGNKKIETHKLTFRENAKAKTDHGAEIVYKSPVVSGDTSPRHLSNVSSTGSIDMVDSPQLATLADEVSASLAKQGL

Oc1c(Cl)cc(Cl)c(Cl)c1Cc1c(O)c(Cl)cc(Cl)c1Cl [hexachlorophene]
levels of phosphorylated serine 396 tau in the soluble fraction (endogenous tau): decreased
phosphorylated (Pser396) tau proteins (endogenous tau; 10 μM, 24 hours): completely cleared
levels of endogenous (total) tau (endogenous tau; 1-10 μM, 24 hours): decreased
phosphorylated form of endogenous tau (endogenous tau; 1-10 μM, 24 hours): significantly reduced
levels of endogenous (total) tau (endogenous tau; 1-10 μM, 24 hours, listed as Hexachlorophene): significantly reduced
levels of phosphorylated serine 396 tau in the soluble fraction (over-expressed tau): decreased
phosphorylated tau (Pser396) (over-expressed tau; 2 μM, 24 hours): completely cleared
total tau (over-expressed tau; 2 μM, 24 hours): partially cleared
phosphorylated tau levels (over-expressed tau; 24 hours): decreased
total tau levels (over-expressed tau; 24 hours): decreased
phosphorylated tau levels (over-expressed tau; [3]): significantly reduced
total tau levels (over-expressed tau; [3]): significantly reduced
levels of phosphorylated serine 396 tau in the soluble fraction (inducible tau): decreased
phosphorylated tau (Pser396) (inducible tau; 1.5 μM, 24 hours): completely cleared
total tau (inducible tau; 1.5 μM, 24 hours): partially cleared
phosphorylated tau (Pser396) levels (inducible tau; 2 μM, 24 hours): cleared
total tau protein (inducible tau; 2 μM, 24 hours): cleared
levels of phosphorylated tau (inducible tau; 24 hours): decreased
levels of total tau (inducible tau; 24 hours): decreased
levels of phosphorylated tau (inducible tau; [3]): significantly reduced
levels of total tau (inducible tau; [3]): significantly reduced
tau aggregation (thioflavin-S staining) (tau aggregates; 1 μM): significant reduction
tau aggregates (thioflavin-S signal) (tau aggregates; 24 hours): reduced
phosphorylated tau (Pser396 & Pser199) (human tau-GFP [1]): reduced
total tau protein (human tau-GFP [1]): reduced
phosphorylated tau (Pser396 and Pser199) (human tau-GFP [2]): reduced
total tau protein (human tau-GFP [2]): reduced
